Measurements taken from PubChem BioAssay AID248 (DTP/NCI, 2004).
Values joined by “and” are separate entries in the source; they are usually repeats but may differ in a detail not shown here. Equal values may be shown once. Toxic doses and inconclusive results are not listed. No stated cut-off is given here; in the data, active means T/C of 150% or more; inactive means T/C below 125%.

Test system: L1210 leukemia ip in BDF1 mice, survival T/C
Test: NCI In Vivo Anticancer Drug Screen. Data for tumor model L1210 Leukemia (intraperitoneal) in B6D2F1 (BDF1) mice
Conditions: endpoint: mean survival time, higher = longer survival
Summary of the method: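 Survival endpoint. Drug-treated group vs vehicle group, expressed as T divided by C. Tumor passaged by transplantation.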

[1] = dose: 50.0 mg/kg/injection, schedule: Q01DX009 (ip), vehicle: saline with Tween-80
[2] = dose: 100.0 mg/kg/injection, schedule: Q01DX009 (ip), vehicle: saline with Tween-80
[3] = dose: 100.0 mg/kg/injection, schedule: Q04DX003 (ip), vehicle: saline with Tween-80
[4] = dose: 200.0 mg/kg/injection, schedule: Q01DX009 (ip), vehicle: saline with Tween-80
[5] = dose: 200.0 mg/kg/injection, schedule: Q04DX003 (ip), vehicle: saline with Tween-80
[6] = dose: 100.0 mg/kg/injection, schedule: Q01DX001 (ip), vehicle: carboxymethylcellulose (CMC)
[7] = dose: 200.0 mg/kg/injection, schedule: Q01DX001 (ip), vehicle: carboxymethylcellulose (CMC)
[8] = dose: 100.0 mg/kg/injection, schedule: Q04DX002 (ip), vehicle: Klucel (hydroxypropylcellulose) (HPC)
[9] = dose: 100.0 mg/kg/injection, schedule: Q01DX009 (ip), vehicle: Klucel (hydroxypropylcellulose) (HPC)
[10] = dose: 100.0 mg/kg/injection, schedule: Q04DX003 (ip), vehicle: Klucel (hydroxypropylcellulose) (HPC)
[11] = dose: 200.0 mg/kg/injection, schedule: Q01DX009 (ip), vehicle: Klucel (hydroxypropylcellulose) (HPC)
[12] = dose: 200.0 mg/kg/injection, schedule: Q04DX003 (ip), vehicle: Klucel (hydroxypropylcellulose) (HPC)
[13] = dose: 400.0 mg/kg/injection, schedule: Q01DX009 (ip), vehicle: Klucel (hydroxypropylcellulose) (HPC)
[14] = dose: 400.0 mg/kg/injection, schedule: Q04DX003 (ip), vehicle: Klucel (hydroxypropylcellulose) (HPC)

Measured: T/C

O=C1c2ccccc2C(=O)N1CC(O)CCl (centres undefined)
inactive: [1] 93 % of control | dose: 50.0 mg/kg/injection, schedule: Q04DX003 (ip), vehicle: saline with Tween-80 91 % of control | [2] 93 % of control | [3] 102 % of control | [4] 90 % of control | [5] 96 % of control

Nc1nc2c(nc(NO)n2C2OC(CO)C(O)C2O)c(=O)[nH]1 (centres undefined)
inactive: dose: 50.0 mg/kg/injection, schedule: Q01DX001 (ip), vehicle: carboxymethylcellulose (CMC) 95 % of control | [6] 110 % of control | [7] 101 % of control

COC(=O)/C=C/c1ccc([N+](=O)[O-])cc1
inactive: [3] 94 % of control and 96 % of control | [5] 96 % of control and 97 % of control | dose: 400.0 mg/kg/injection, schedule: Q04DX003 (ip), vehicle: saline with Tween-80 92 % of control

COC(=O)C1CN(C)CCC1=O (centres undefined)
inactive: dose: 100.0 mg/kg/injection, schedule: Q01DX001 (ip), vehicle: saline 97 % of control | dose: 200.0 mg/kg/injection, schedule: Q01DX001 (ip), vehicle: saline 106 % of control | dose: 400.0 mg/kg/injection, schedule: Q01DX001 (ip), vehicle: saline 95 % of control

S=C(N=Nc1ccccc1)NNc1ccccc1
inactive: dose: 18.8 mg/kg/injection, schedule: Q04DX003 (ip), vehicle: saline with Tween-80 90 % of control | dose: 18.9 mg/kg/injection, schedule: Q01DX009 (ip), vehicle: saline with Tween-80 87 % of control | dose: 30.0 mg/kg/injection, schedule: Q01DX Z (ip), vehicle: carboxymethylcellulose (CMC) 92 % of control | dose: 37.5 mg/kg/injection, schedule: Q01DX009 (ip), vehicle: saline with Tween-80 92 % of control | dose: 37.5 mg/kg/injection, schedule: Q01DX Z (ip), vehicle: carboxymethylcellulose (CMC) 97 % of control | dose: 37.5 mg/kg/injection, schedule: Q04DX003 (ip), vehicle: saline with Tween-80 87 % of control | dose: 45.0 mg/kg/injection, schedule: Q01DX Z (ip), vehicle: carboxymethylcellulose (CMC) 97 % of control | dose: 75.0 mg/kg/injection, schedule: Q01DX009 (ip), vehicle: saline with Tween-80 90 % of control | dose: 75.0 mg/kg/injection, schedule: Q01DX Z (ip), vehicle: carboxymethylcellulose (CMC) 92 % of control | dose: 75.0 mg/kg/injection, schedule: Q04DX003 (ip), vehicle: saline with Tween-80 92 % of control | dose: 150.0 mg/kg/injection, schedule: Q04DX003 (ip), vehicle: saline with Tween-80 88 % of control | [7] 101 % of control

O=C(Nc1ccc(Cl)cc1)Oc1ccc(C2CCCCC2)cc1
inactive: [8] 100 % of control | dose: 200.0 mg/kg/injection, schedule: Q04DX002 (ip), vehicle: Klucel (hydroxypropylcellulose) (HPC) 107 % of control | dose: 400.0 mg/kg/injection, schedule: Q04DX002 (ip), vehicle: Klucel (hydroxypropylcellulose) (HPC) 110 % of control

O=C(O)C1CC2C=CC1C2 (centres undefined)
inactive: [2] 101 % of control | dose: 100.0 mg/kg/injection, schedule: Q04DX003 (ip), vehicle: saline 102 % of control | [4] 101 % of control | dose: 200.0 mg/kg/injection, schedule: Q04DX003 (ip), vehicle: saline 94 % of control | dose: 400.0 mg/kg/injection, schedule: Q01DX009 (ip), vehicle: saline with Tween-80 102 % of control | dose: 400.0 mg/kg/injection, schedule: Q04DX003 (ip), vehicle: saline 105 % of control

CCC(Cl)COP(=O)(OCC(Cl)CC)C(CC)CCl (centres undefined)
inactive: [6] 93 % of control | dose: 100.0 mg/kg/injection, schedule: Q01DX009 (ip), vehicle: carboxymethylcellulose (CMC) 98 % of control and 91 % of control | dose: 100.0 mg/kg/injection, schedule: Q04DX002 (ip), vehicle: carboxymethylcellulose (CMC) 94 % of control and 95 % of control | dose: 100.0 mg/kg/injection, schedule: Q04DX003 (ip), vehicle: carboxymethylcellulose (CMC) 101 % of control | [7] 96 % of control | dose: 200.0 mg/kg/injection, schedule: Q01DX009 (ip), vehicle: carboxymethylcellulose (CMC) 94 % of control and 103 % of control | dose: 200.0 mg/kg/injection, schedule: Q04DX002 (ip), vehicle: carboxymethylcellulose (CMC) 95 % of control and 102 % of control | dose: 200.0 mg/kg/injection, schedule: Q04DX003 (ip), vehicle: carboxymethylcellulose (CMC) 96 % of control | dose: 400.0 mg/kg/injection, schedule: Q01DX001 (ip), vehicle: carboxymethylcellulose (CMC) 96 % of control | dose: 400.0 mg/kg/injection, schedule: Q01DX009 (ip), vehicle: carboxymethylcellulose (CMC) 105 % of control and 106 % of control | dose: 400.0 mg/kg/injection, schedule: Q04DX002 (ip), vehicle: carboxymethylcellulose (CMC) 94 % of control and 95 % of control | dose: 400.0 mg/kg/injection, schedule: Q04DX003 (ip), vehicle: carboxymethylcellulose (CMC) 98 % of control

COC(=O)C=P(c1ccccc1)(c1ccccc1)c1ccccc1
inactive: dose: 75.0 mg/kg/injection, schedule: Q01DX001 (ip), vehicle: carboxymethylcellulose (CMC) 98 % of control | dose: 150.0 mg/kg/injection, schedule: Q01DX001 (ip), vehicle: carboxymethylcellulose (CMC) 98 % of control | dose: 300.0 mg/kg/injection, schedule: Q01DX001 (ip), vehicle: carboxymethylcellulose (CMC) 101 % of control

O=C(C1C(c2ccccc2)C1c1ccccc1)N(CCO)Cc1ccccc1 (centres undefined)
inactive: dose: 25.0 mg/kg/injection, schedule: Q04DX002 (ip), vehicle: Klucel (hydroxypropylcellulose) (HPC) 94 % of control | dose: 50.0 mg/kg/injection, schedule: Q04DX002 (ip), vehicle: Klucel (hydroxypropylcellulose) (HPC) 103 % of control | [8] 94 % of control

S=c1ncn(-c2ccccc2)[nH]1
inactive: [1] 103 % of control | [2] 95 % of control | [4] 95 % of control

COCC(=O)Oc1cc(-c2ccc(C)cc2C)c(OC(=O)COC)c(-c2ccc(C)cc2C)c1
inactive: dose: 75.0 mg/kg/injection, schedule: Q04DX003 (ip), vehicle: Klucel (hydroxypropylcellulose) (HPC) 90 % of control | dose: 100.0 mg/kg/injection, schedule: Q01DX001 (ip), vehicle: Klucel (hydroxypropylcellulose) (HPC) 90 % of control | dose: 150.0 mg/kg/injection, schedule: Q04DX003 (ip), vehicle: Klucel (hydroxypropylcellulose) (HPC) 87 % of control | dose: 200.0 mg/kg/injection, schedule: Q01DX001 (ip), vehicle: Klucel (hydroxypropylcellulose) (HPC) 91 % of control | dose: 300.0 mg/kg/injection, schedule: Q04DX003 (ip), vehicle: Klucel (hydroxypropylcellulose) (HPC) 93 % of control and 94 % of control | dose: 400.0 mg/kg/injection, schedule: Q01DX001 (ip), vehicle: Klucel (hydroxypropylcellulose) (HPC) 101 % of control

CCCCCCCCS(=O)(O)=S.[Fe]
inactive: dose: 75.0 mg/kg/injection, schedule: Q01DX001 (ip), vehicle: saline 93 % of control | dose: 150.0 mg/kg/injection, schedule: Q01DX001 (ip), vehicle: saline 91 % of control | dose: 300.0 mg/kg/injection, schedule: Q01DX001 (ip), vehicle: saline 91 % of control

CN(C)/C=N/NC(=O)C(O)(c1ccccc1)c1ccccc1
inactive: dose: 75.0 mg/kg/injection, schedule: Q01DX009 (ip), vehicle: Klucel (hydroxypropylcellulose) (HPC) 105 % of control | dose: 150.0 mg/kg/injection, schedule: Q01DX009 (ip), vehicle: Klucel (hydroxypropylcellulose) (HPC) 100 % of control | dose: 300.0 mg/kg/injection, schedule: Q01DX009 (ip), vehicle: Klucel (hydroxypropylcellulose) (HPC) 95 % of control

COC(=O)c1ccc(C(=O)OC)c(NC(=O)CC(=O)c2ccc([N+](=O)[O-])cc2)c1
inactive: [9] 88 % of control | [10] 101 % of control | [11] 91 % of control | [12] 90 % of control | [13] 91 % of control | [14] 96 % of control

COC(=O)C1=C[N+](C)(C)N=C1[O-]
inactive: dose: 100.0 mg/kg/injection, schedule: Q01DX009 (ip), vehicle: saline 97 % of control | dose: 200.0 mg/kg/injection, schedule: Q01DX009 (ip), vehicle: saline 94 % of control | dose: 400.0 mg/kg/injection, schedule: Q01DX009 (ip), vehicle: saline 93 % of control

CO/C(=C\c1ccc(OC)cc1)C(=O)O
inactive: [9] 93 % of control | [10] 100 % of control | [11] 90 % of control | [12] 101 % of control | [13] 93 % of control | [14] 100 % of control
